These results are taken from publication doi:10.1101/2021.10.07.463234v2 (biorxiv, 2021).

Molecules are shown by their SMILES. Structures can show the parent of a compound that is named as a salt.

The first test deals with SARS-CoV-2 Mac1 (Severe acute respiratory syndrome coronavirus 2, UniProt P0DTD1). Nature of the test: biochemical. The note with it: 100 µM; inhibitor.
For orientation: %inhibition means how much of the control response was suppressed. A lower %inhibition goes with little suppression. `COCCCN1CCC(NC(=O)c2cc(Cl)c(N)c3c2OCC3)CC1` [Prucalopride Succinate]: the “%inhibition” value came out at 23.93%.
Same read-out and setting: next, `COCCCN1CCC(NC(=O)c2cc(Cl)c(N)c3c2OCC3)CC1` [Prucalopride]: 8.754%; `COc1cc(Nc2ncc(F)c(Nc3ccc4c(n3)N(COP(=O)(O)O)C(=O)C(C)(C)O4)n2)cc(OC)c1OC` [R788 (Fostamatinib) Disodium]: 15.48%; `COCCCOc1ccnc(C[S+]([O-])c2nc3ccccc3[nH]2)c1C` (centres unmarked) [Rabeprazole]: 0.1163%.
As for `Cc1nnc(C(=O)NC(C)(C)c2nc(C(=O)NCc3ccc(F)cc3)c(O)c(=O)n2C)o1` [Raltegravir (MK-0518)], the “%inhibition” value is on record as 3.868%.
For `Cc1nnc(C(=O)NC(C)(C)c2nc(C(=O)NCc3ccc(F)cc3)c(O)c(=O)n2C)o1` [Raltegravir potassium], the “%inhibition” value is on record as 7.113%.
Still for that read-out and setting: next, `COc1ccccc1OCC(O)CN1CCN(CC(=O)Nc2c(C)cccc2C)CC1` (centres unmarked) [Ranolazine 2HCl]: 0%; `COc1ccccc1OCC(O)CN1CCN(CC(=O)Nc2c(C)cccc2C)CC1` (centres unmarked) [Ranolazine]: 11.36%; `COCCCOc1ccnc(C[S+]([O-])c2nc3ccccc3[nH]2)c1C` (centres unmarked) [Rebeprazole sodium]: 0%.
Same read-out and setting: next, `CNC(=O)c1cc(Oc2ccc(NC(=O)Nc3ccc(Cl)c(C(F)(F)F)c3)c(F)c2)ccn1` [Regorafenib (BAY 73-4506)]: 2.978%; `CNC(=O)c1cc(Oc2ccc(NC(=O)Nc3ccc(Cl)c(C(F)(F)F)c3)c(F)c2)ccn1` [Regorafenib Monohydrate]: 0%.
On the same count and under the same terms, next, `CCOC(=O)Nc1ccc(NCc2ccc(F)cc2)cc1N` [Retigabine 2HCl]: 8.664%.
In the case of `CCOC(=O)Nc1ccc(NCc2ccc(F)cc2)cc1N` [Retigabine], the “%inhibition” value came out at 0%.

Still in this test, the particulars now being: read-out: %inhibition.
As usually defined, the inhibition is the change of the read-out against control, counted positive when it falls. For the compound `COc1cc(NC(C)CCCN)c2ncccc2c1` (centres unmarked) [Primaquine Diphosphate], the inhibition at 100 µM worked out at 5.42%.
The same measure, in the same setting: next, `CCC1(c2ccccc2)C(=O)NCNC1=O` [Primidone]: 7.21%.
The same measure, in the same setting: next, `CCCC(C(=O)OCCN(CC)CC)(c1ccccc1)c1ccccc1` [Proadifen HCl]: 15.2%.
Still for that read-out and setting: next, `CC(C)(Sc1cc(C(C)(C)C)c(O)c(C(C)(C)C)c1)Sc1cc(C(C)(C)C)c(O)c(C(C)(C)C)c1` [Probucol]: 6.54%.
On to `CCN(CC)CCNC(=O)c1ccc(N)cc1` [Procainamide HCl], for which the inhibition at 100 µM came to 17.1%.
Still for that read-out and setting: next, `CCN(CC)CCOC(=O)c1ccc(N)cc1` [Procaine]: 0%.
The same measure, in the same setting: next, `CNNCc1ccc(C(=O)NC(C)C)cc1` [Procarbazine HCl]: 0%.
Same read-out and setting: next, `O=C(O)CCc1nc2ccccc2[nH]1` [Procodazole]: 7.67%; `OC(CCN1CCCC1)(c1ccccc1)C1CCCCC1` (centres unmarked) [Procyclidine HCl]: 6.52%.
As to `Nc1ccc2cc3ccc(N)cc3nc2c1` [Proflavine Hemisulfate], the inhibition at 100 µM was determined as 0%.
Same read-out and setting: next, `CC(=O)[C@H]1CC[C@H]2[C@@H]3CCC4=CC(=O)CC[C@]4(C)[C@H]3CC[C@]12C` [Progesterone]: 1.73%.
Still for that read-out and setting: next, `CN(C)CCCN1c2ccccc2Sc2ccccc21` [Promazine hydrochloride]: 0%.
On the same count and under the same terms, next, `CC(CN1c2ccccc2Sc2ccccc21)N(C)C` (centres unmarked) [Promethazine HCl]: 0%; `CCCNCC(O)COc1ccccc1C(=O)CCc1ccccc1` (centres unmarked) [Propafenone HCl]: 0%.
Regarding `CC(C)[N+](C)(CCOC(=O)C1c2ccccc2Oc2ccccc21)C(C)C` [Propantheline bromide], the inhibition at 100 µM was 0%.
As for `CCCOc1ccc(C(=O)OCCN(CC)CC)cc1N` [Proparacaine HCl], the inhibition at 100 µM was found to be 13%.
Take `CCCOC(C(=O)OC1CCN(C)CC1)(c1ccccc1)c1ccccc1` [Propiverine hydrochloride]: the inhibition at 100 µM worked out at 21.7%.
The same measure, in the same setting: next, `CC(C)c1cccc(C(C)C)c1O` [Propofol]: 19.3%; `CCCc1cc(=O)[nH]c(=S)[nH]1` [Propylthiouracil]: 11.2%.
Same read-out and setting: next, `Cc1c(C(C)C)c(=O)n(-c2ccccc2)n1C` [Propyphenazone (4-Isopropylantipyrine)]: 0%; `CCCCC[C@H](O)/C=C/[C@H]1[C@H](O)CC(=O)[C@@H]1C/C=C\CCCC(=O)O` [Prostaglandin E2 (PGE2)]: 8.12%.
On the same count and under the same terms, next, `CCCc1cc(C(N)=S)ccn1` [Protionamide]: 50.9%; `NC(=O)[C@@H]1CCCN1C(=O)[C@H](Cc1c[nH]cn1)NC(=O)[C@@H]1CCC(=O)N1` [Protirelin]: 0%.
On to `CC(O)Cn1cnc2c1c(=O)n(C)c(=O)n2C` (centres unmarked) [Proxyphylline], for which the inhibition at 100 µM was 1.62%.
On the same count and under the same terms, next, `COc1ccc(C[C@H](N)C(=O)N[C@H]2[C@@H](O)[C@H](n3cnc4c(N(C)C)ncnc43)O[C@@H]2CO)cc1` [Puromycin 2HCl]: 4.39%; `NC(=O)c1cnccn1` [Pyrazinamide]: 24.2%.
In the case of `CN(C)C(=O)Oc1ccc[n+](C)c1` [Pyridostigmine Bromide], the inhibition at 100 µM is 0%.
Still for that read-out and setting: next, `Cc1ncc(COP(=O)(O)O)c(C=O)c1O` [Pyridoxal phosphate]: 0%.
Still for that read-out and setting: next, `Cc1ncc(CO)c(CO)c1O` [Pyridoxine]: 0%; `COc1ccc(CN(CCN(C)C)c2ccccn2)cc1` [Pyrilamine Maleate]: 5.37%.
On the same count and under the same terms, next, `CCc1nc(N)nc(N)c1-c1ccc(Cl)cc1` [Pyrimethamine]: 3.53%.
As for `CCOC(=O)[C@H](CCc1ccccc1)N[C@@H](C)C(=O)N1Cc2ccccc2C[C@H]1C(=O)O` [Quinapril HCl], the inhibition at 100 µM is 25%.
On the same count and under the same terms, next, `C#C[C@]1(O)CC[C@H]2[C@@H]3CCc4cc(OC5CCCC5)ccc4[C@H]3CC[C@@]21C` [Quinestrol]: 0%; `C=C[C@H]1CN2CC[C@H]1C[C@@H]2[C@@H](O)c1ccnc2ccc(OC)cc12` [Quinidine sulfate]: 0%; `C=C[C@H]1CN2CC[C@H]1C[C@H]2[C@H](O)c1ccnc2ccc(OC)cc12` [Quinine HCl Dihydrate]: 0%.
On the same count and under the same terms, next, `Cn1cc(CNCC2CCN(c3ncc(C(=O)NO)cn3)CC2)c2ccccc21` [Quisinostat (JNJ-26481585) 2HCl]: 0%; `CC(C)(C)c1cc(NC(=O)Nc2ccc(-c3cn4c(n3)sc3cc(OCCN5CCOCC5)ccc34)cc2)no1` [Quizartinib (AC220)]: 0%.
Regarding `CC(=O)SCC(Cc1ccccc1)C(=O)NCC(=O)OCc1ccccc1` (centres unmarked) [Racecadotril], the inhibition at 100 µM is 0%.
The same measure, in the same setting: next, `CC(CCc1ccc(O)cc1)NCC(O)c1ccc(O)cc1` (centres unmarked) [Ractopamine HCl]: 0%; `Cc1cn(-c2cc(NC(=O)c3ccc(C)c(Nc4nccc(-c5cnccn5)n4)c3)cc(C(F)(F)F)c2)cn1` [Radotinib]: 1.77%.
Same read-out and setting: next, `CC(C)(C)Cn1c(N)nc2ccc(-c3[nH]c(C(C)(C)C)nc3-c3ccc(F)cc3)nc21` [Ralimetinib (LY2228820)]: 0.925%; `O=C(c1ccc(OCCN2CCCCC2)cc1)c1c(-c2ccc(O)cc2)sc2cc(O)ccc12` [Raloxifene HCl]: 63.1%.
As for `Cc1nc(=O)c2cc(CN(C)c3ccc(C(=O)N[C@@H](CCC(=O)O)C(=O)O)s3)ccc2[nH]1` [Raltitrexed], the inhibition at 100 µM stood at 24.8%.
Still for that read-out and setting: next, `O=C(O)CCn1c2c(c3ccccc31)C[C@H](NS(=O)(=O)c1ccc(F)cc1)CC2` [Ramatroban]: 4.2%; `CCC(=O)NCC[C@@H]1CCc2ccc3c(c21)CCO3` [Ramelteon]: 21%.
Same read-out and setting: next, `CCOC(=O)[C@H](CCc1ccccc1)N[C@@H](C)C(=O)N1[C@H](C(=O)O)C[C@@H]2CCC[C@@H]21` [Ramipril]: 0%; `Cn1cc(C(=O)[C@@H]2CCc3[nH]cnc3C2)c2ccccc21` [Ramosetron Hydrochloride]: 0%.
The same measure, in the same setting: next, `CNC(=C[N+](=O)[O-])NCCSCc1ccc(CN(C)C)o1` [Ranitidine Hydrochloride]: 10.7%.
Regarding `CO[C@H]1C[C@@H]2CC[C@@H](C)[C@@](O)(O2)C(=O)C(=O)N2CCCC[C@H]2C(=O)O[C@H]([C@H](C)C[C@@H]2CC[C@@H](O)[C@H](OC)C2)CC(=O)[C@H](C)/C=C(\C)[C@@H](O)[C@@H](OC)C(=O)[C@H](C)C[C@H](C)/C=C/C=C/C=C/1C` [Rapamycin (Sirolimus)], the inhibition at 100 µM was 30.7%.
Take `C#CCN[C@@H]1CCc2ccccc21` [Rasagiline Mesylate]: the inhibition at 100 µM came to 0%.
Same read-out and setting: next, `O=C(NC(Cc1cc(=O)[nH]c2ccccc12)C(=O)O)c1ccc(Cl)cc1` (centres unmarked) [Rebamipide]: 0%; `CNC(=O)c1cnn(-c2nc(N)c3ncn([C@@H]4O[C@H](CO)[C@@H](O)[C@H]4O)c3n2)c1` [Regadenoson]: 0%; `CCOc1cc(CC(=O)N[C@@H](CC(C)C)c2ccccc2N2CCCCC2)ccc1C(=O)O` [Repaglinide]: 0%.
Still for that read-out and setting: next, `COC(=O)[C@H]1[C@H]2C[C@@H]3c4[nH]c5cc(OC)ccc5c4CCN3C[C@H]2C[C@@H](OC(=O)c2cc(OC)c(OC)c(OC)c2)[C@@H]1OC` [Reserpine]: 0%.
Same read-out and setting: next, `CN(C)Cc1ccc(S(=O)(=O)n2ccc(/C=C/C(=O)NO)c2)cc1` [Resminostat]: 18.5%.
Regarding `Oc1cccc(O)c1` [Resorcinol], the inhibition at 100 µM was 0%.
For the compound `Oc1ccc(/C=C/c2cc(O)cc(O)c2)cc1` [Resveratrol], the inhibition at 100 µM was determined as 0%.
Same read-out and setting: next, `C=C[C@]1(C)C[C@@H](OC(=O)CS[C@@H]2C[C@H]3CC[C@@H](C2)N3C)[C@]2(C)[C@H](C)CC[C@]3(CCC(=O)[C@H]32)[C@@H](C)[C@@H]1O` [Retapamulin]: 0%.
